Measured values reported in patent US20250144067A1, “PERSONALIZED STARVATION THERAPY FOR CANCER” (Faeth Therapeutics, Inc., priority 2021, published 2025).
Where a name gives a salt, the structure may show the parent alone. Ends that are not written are not given here.

Assays:
[1] = system: NCI-H292 lung cancer cells; test: FDA drug screening, complete media vs cholesterol-free media without statin (TABLE 1); format: cell-based, human
[2] = system: NCI-H292 lung cancer cells; test: FDA drug screening, complete media vs cholesterol-free media with simvastatin (TABLE 2); format: cell-based, human; conditions: for Cholesterol-free media + simvastatin (0.04 μM) / Complete Media: NCI-H292 cells
[3] = Complete minus Cholesterol-free, […]
[4] = NCI-H292 cells, cholesterol-free media without statin, FDA drug library screen
[5] = NCI-H292 cells, complete media, FDA drug library screen
[6] = cholesterol-free media with simvastatin 0.04 μM, FDA drug library screen (TABLE 2)
[7] = complete media, FDA drug library screen (TABLE 2)
[8] = complete media minus cholesterol-free media + simvastatin (0.04 μM), […]
[9] = NCI-H292 cells, cholesterol-free media without statin
[10] = complete vs cholesterol-free media, greater than 0 enhanced anti-cancer activity, about 0 neutral, below 0 antagonists
[11] = cholesterol-free media with simvastatin 0.04 μM, cell growth value in FDA drug screen
[12] = complete media, cell growth value in FDA drug screen
[13] = complete media minus cholesterol-free media + simvastatin, >0 enhanced anti-cancer activity, about 0 neutral, <0 antagonist
[14] = FDA drug library screen, cholesterol-free media with simvastatin 0.04 μM
[15] = FDA drug library screen, complete media
[16] = Complete minus Cholesterol-free, >0 enhanced anti-cancer activity, about 0 neutral, <0 antagonist
[17] = drug in cholesterol-free media with simvastatin 0.04 μM
[18] = complete media vs cholesterol-free media + simvastatin (0.04 μM), >0 enhanced anti-cancer activity, about 0 neutral, <0 antagonist
[19] = complete vs cholesterol-free media, >0 enhanced anti-cancer activity, about 0 neutral, <0 antagonist
[20] = FDA library drug in cholesterol-free media with simvastatin 0.04 μM
[21] = FDA library drug in complete media
[22] = Complete minus Cholesterol-free, greater than 0 enhanced anti-cancer activity, about 0 neutral, below 0 antagonist
[23] = NCI-H292 cells, FDA drug library screen, cholesterol-free media without statin
[24] = NCI-H292 cells, FDA drug library screen, complete media

Compound: CC(=O)NCCCS(=O)(=O)O [Acamprosate (calcium)]
- Difference [1, 3]: 0.03
- Cholesterol-free [1, 4]: 1.751
- Complete [1, 5]: 1.779
- Cholesterol-free media + simvastatin (0.04 μM) [2, 6]: 1.34
- Complete Media [2, 7]: 1.328
- Difference [2, 8]: −0.01

Compound: O=c1ccc2ccc(OCCCCN3CCN(c4cccc5sccc45)CC3)cc2[nH]1 [Brexpiprazole]
- Cholesterol-free [1, 9]: 0.9917
- Complete ([1]; NCI-H292 cells, complete media): 0.6405
- Difference [1, 10]: −0.35
- Cholesterol-free media + simvastatin (0.04 μM) [2, 11]: 0.8945
- Complete Media [2, 12]: 1.024
- Difference [2, 13]: 0.13

Compound: O=c1oc2ccccc2c(O)c1Cc1c(O)c2ccccc2oc1=O [Dicoumarol]
- Difference ([1]; Complete minus Cholesterol-free, greater than 0 enhanced anti-cancer activity, about 0 neutral, below 0 antagonists): −0.93
- Cholesterol-free ([1]; NCI-H292 cells in cholesterol-free media without statin): 2.049
- Complete ([1]; NCI-H292 cells in complete media): 1.114
- Cholesterol-free media + simvastatin (0.04 μM) [2, 14]: 0.8973
- Complete Media [2, 15]: 1.089
- Difference [2, 13]: 0.19

Compound: CC1(S(=O)(=O)[O-])CC(=O)c2ccccc2C1=O.[Na+] (stereo not shown) [Menadione bisulfite (sodium)]
- Difference [1, 16]: 0.03
- Cholesterol-free [1, 4]: 1.466
- Complete [1, 5]: 1.492
- Cholesterol-free media + simvastatin (0.04 μM) [2, 17]: 0.991
- Complete Media ([2]; drug in complete media): 0.8295
- Difference [2, 18]: −0.16

Compound: Cc1ccccc1-c1cc(N2CCN(C)CC2)ncc1N(C)C(=O)C(C)(C)c1cc(C(F)(F)F)cc(C(F)(F)F)c1 [Netupitant]
- Cholesterol-free [1, 9]: 1.25
- Complete ([1]; NCI-H292 cells, complete media): 0.915
- Difference [1, 10]: −0.34
- Cholesterol-free media + simvastatin (0.04 μM) [2, 11]: 0.8546
- Complete Media [2, 12]: 0.9156
- Difference [2, 13]: 0.06

Compound: CCOC(=O)[C@H](CCc1ccccc1)N[C@H]1CCCN2CCC[C@@H](C(=O)O)N2C1=O [Cilazapril (monohydrate)]
- Cholesterol-free [1, 4]: 0.8411
- Complete [1, 5]: 0.9896
- Difference [1, 19]: 0.15
- Cholesterol-free media + simvastatin (0.04 μM) [2, 17]: 1.266
- Complete Media ([2]; drug in complete media): 1.104
- Difference [2, 18]: −0.16

Compound: CC(C)/N=c1\cc2n(-c3ccc(Cl)cc3)c3ccccc3nc-2cc1Nc1ccc(Cl)cc1 [Clofazimine]
- Cholesterol-free [1, 9]: 0.8398
- Complete ([1]; NCI-H292 cells, complete media): 0.4066
- Difference [1, 10]: −0.43
- Cholesterol-free media + simvastatin (0.04 μM) [2, 6]: 0.9946
- Complete Media [2, 7]: 0.9365
- Difference ([2]; complete media minus cholesterol-free media + simvastatin (0.04 μM), >0 enhanced anti-cancer activity, about 0 neutral, <0 antagonist): −0.06

Compound: CC(=O)O[C@H]1C[C@H](O[C@H]2[C@@H](O)C[C@H](O[C@H]3[C@@H](O)C[C@H](O[C@H]4CC[C@@]5(C)[C@H](CC[C@@H]6[C@@H]5C[C@@H](O)[C@]5(C)[C@@H](C7=CC(=O)OC7)CC[C@]65O)C4)O[C@@H]3C)O[C@@H]2C)O[C@H](C)[C@H]1O[C@@H]1O[C@H](CO)[C@@H](O)[C@H](O)[C@H]1O [Lanatoside C]
- Difference [1, 3]: −0.02
- Cholesterol-free [1, 4]: 7.102E−18
- Complete [1, 5]: −0.02112
- Cholesterol-free media + simvastatin (0.04 μM) [2, 6]: −0.002744
- Complete Media [2, 7]: −0.008403
- Difference [2, 8]: −0.01

Compound: CCCC(=O)O[C@]1(C(=O)COC(C)=O)CC[C@H]2[C@@H]3C[C@H](F)C4=CC(=O)C=C[C@]4(C)[C@@]3(F)[C@@H](O)C[C@@]21C [Difluprednate]
- Difference [1, 16]: −0.21
- Cholesterol-free [1, 9]: 0.9273
- Complete ([1]; NCI-H292 cells, complete media): 0.7168
- Cholesterol-free media + simvastatin (0.04 μM) [2, 11]: 1.197
- Complete Media [2, 12]: 1.264
- Difference [2, 13]: 0.07

Compound: Nc1cc(N2CCCCC2)nc(N)[n+]1OS(=O)(=O)[O-] [Minoxidil sulfate]
- Difference [1, 16]: −0.27
- Cholesterol-free [1, 9]: 1.329
- Complete ([1]; NCI-H292 cells, complete media): 1.056
- Cholesterol-free media + simvastatin (0.04 μM) [2, 14]: 1.144
- Complete Media [2, 15]: 1.047
- Difference [2, 18]: −0.10

Compound: CCN(CC)C(=O)/C(C#N)=C/c1cc(O)c(O)c([N+](=O)[O-])c1 [Entacapone]
- Cholesterol-free [1, 4]: 0.7629
- Complete [1, 5]: 0.9193
- Difference [1, 19]: 0.16
- Cholesterol-free media + simvastatin (0.04 μM) [2, 14]: 1.719
- Complete Media [2, 15]: 1.579
- Difference [2, 18]: −0.14

Compound: COc1ccc2c3c1O[C@H]1C[C@@H](O)C=C[C@@]31CCN(C)C2 [Galanthamine]
- Cholesterol-free [1, 9]: 1.164
- Complete ([1]; NCI-H292 cells, complete media): 0.829
- Difference ([1]; complete vs cholesterol-free media, […]): −0.33
- Cholesterol-free media + simvastatin (0.04 μM) [2, 6]: 1.051
- Complete Media [2, 7]: 1.046
- Difference [2, 8]: −0.01

Compound: O=[N+]([O-])c1ccc(O)c2ncccc12 [Nitroxoline]
- Cholesterol-free [1, 4]: 0.8448
- Complete [1, 5]: 1.027
- Difference [1, 19]: 0.18
- Cholesterol-free media + simvastatin (0.04 μM) [2, 14]: 1.871
- Complete Media [2, 15]: 1.743
- Difference [2, 18]: −0.13

Compound: Nc1nc(N)c2nc(-c3ccccc3)c(N)nc2n1 [Triamterene]
- Cholesterol-free [1, 4]: 0.6087
- Complete [1, 5]: 1.304
- Difference [1, 19]: 0.69
- Cholesterol-free media + simvastatin (0.04 μM) [2, 20]: 1.582
- Complete Media [2, 21]: 1.301
- Difference [2, 18]: −0.28

Compound: OC[C@@H](O)[C@@H](O[C@@H]1O[C@H](CO)[C@H](O)[C@H](O)[C@H]1O)[C@H](O)[C@@H](O)CO [Lactitol (monohydrate)]
- Difference [1, 22]: −0.17
- Cholesterol-free [1, 23]: 1.059
- Complete [1, 24]: 0.8908
- Cholesterol-free media + simvastatin (0.04 μM) [2, 11]: 1.183
- Complete Media [2, 12]: 1.215
- Difference [2, 13]: 0.03

Compound: CN(C)CC(c1ccc(O)cc1)C1(O)CCCCC1 (stereo not shown) [Desvenlafaxine]
- Cholesterol-free [1, 9]: 1.158
- Complete ([1]; NCI-H292 cells, complete media): 0.8309
- Difference [1, 10]: −0.33
- Cholesterol-free media + simvastatin (0.04 μM) [2, 11]: 1.047
- Complete Media [2, 12]: 1.102
- Difference [2, 13]: 0.05

Compound: C[C@@H](NCCCc1cccc(C(F)(F)F)c1)c1cccc2ccccc12 [Cinacalcet]
- Cholesterol-free [1, 4]: 0.8181
- Complete [1, 5]: 1.378
- Difference [1, 19]: 0.56
- Cholesterol-free media + simvastatin (0.04 μM) [2, 11]: 0.8605
- Complete Media [2, 12]: 0.9247
- Difference [2, 13]: 0.06

Compound: CC(=O)[C@@]1(O)CC[C@H]2[C@@H]3CCC4=CC(=O)CC[C@]4(C)[C@H]3CC[C@@]21C [17-Hydroxyprogesterone]
- Difference [1, 3]: −0.02
- Cholesterol-free [1, 4]: 1.202
- Complete [1, 5]: 1.185
- Cholesterol-free media + simvastatin (0.04 μM) [2, 14]: 0.9953
- Complete Media [2, 15]: 0.8962
- Difference ([2]; complete media vs cholesterol-free media + simvastatin (0.04 μM), […]): −0.10

Compound: CC[C@@H](C(N)=O)N1CCCC1=O [Levetiracetam]
- Difference [1, 16]: −0.22
- Cholesterol-free [1, 9]: 1.098
- Complete ([1]; NCI-H292 cells, complete media): 0.8825
- Cholesterol-free media + simvastatin (0.04 μM) [2, 14]: 1.002
- Complete Media [2, 15]: 0.917
- Difference [2, 18]: −0.09

Compound: CC(C)N1CCN(c2ccc(OCC3COC(Cn4cncn4)(c4ccc(Cl)cc4Cl)O3)cc2)CC1 (stereo not shown) [Terconazole]
- Cholesterol-free [1, 4]: 1.052
- Complete [1, 5]: 1.158
- Difference [1, 19]: 0.11
- Cholesterol-free media + simvastatin (0.04 μM) [2, 14]: 0.6294
- Complete Media [2, 15]: 1.003
- Difference [2, 13]: 0.37

Compound: Oxytocin (acetate)
- Difference [1, 3]: −0.16
- Cholesterol-free [1, 23]: 1.734
- Complete [1, 24]: 1.57
- Cholesterol-free media + simvastatin (0.04 μM) ([2]; cholesterol-free media with simvastatin 0.04 μM, […]): 0.9906
- Difference ([2]; complete media minus cholesterol-free media + simvastatin, […]): 0.04

Compound: Cyclic somatostatin (AGCKNFFWKTFTSC; not fully specified (bridges); cysteine pairing not given here; UniProt P61278 103-116, looked up)
- Difference [1, 3]: 0.00
- Cholesterol-free [1, 4]: 1.02
- Complete [1, 5]: 1.023
- Cholesterol-free media + simvastatin (0.04 μM) [2, 6]: 0.9769
- Difference [2, 8]: −0.04

Compound: CC(C)(C)C(=O)Oc1ccc(S(=O)(=O)Nc2ccccc2C(=O)NCC(=O)O)cc1 [Sivelestat]
- Difference [1, 22]: −0.16
- Cholesterol-free [1, 23]: 1.175
- Complete [1, 24]: 1.017
- Cholesterol-free media + simvastatin (0.04 μM) [2, 11]: 0.7952
- Complete Media [2, 12]: 0.866
- Difference [2, 13]: 0.07

Compound: CC(N)C12CC3CC(CC(C3)C1)C2 (stereo not shown) [Rimantadine (hydrochloride)]
- Cholesterol-free [1, 4]: 0.8509
- Complete [1, 5]: 1.649
- Difference [1, 19]: 0.80
- Cholesterol-free media + simvastatin (0.04 μM) [2, 14]: 0.9474
- Complete Media [2, 15]: 0.8656
- Difference [2, 18]: −0.08

Compound: O=C(O)c1cc(=O)c2ccccc2o1 [Chromocarb]
- Cholesterol-free [1, 9]: 1.221
- Complete ([1]; NCI-H292 cells, complete media): 0.8012
- Difference [1, 10]: −0.42
- Cholesterol-free media + simvastatin (0.04 μM) [2, 20]: 1.932
- Complete Media [2, 21]: 1.471
- Difference [2, 18]: −0.46

Compound: CCCC1O[C@@H]2C[C@H]3[C@@H]4CCC5=CC(=O)C=C[C@]5(C)[C@H]4[C@@H](O)C[C@]3(C)[C@]2(C(=O)CO)O1 (stereo partly shown) [Budesonide]
- Cholesterol-free [1, 4]: 0.6924
- Complete [1, 5]: 1.034
- Difference [1, 19]: 0.34
- Cholesterol-free media + simvastatin (0.04 μM) [2, 20]: 1.254
- Complete Media [2, 21]: 0.6405
- Difference [2, 18]: −0.61

Compound: CC(=O)OCC1=C(C(=O)O)N2C(=O)[C@@H](NC(=O)Cc3cccs3)[C@H]2SC1 [Cephalothin (sodium)]
- Cholesterol-free [1, 4]: 0.5607
- Complete [1, 5]: 1.228
- Difference [1, 19]: 0.67
- Cholesterol-free media + simvastatin (0.04 μM) [2, 17]: 0.9867
- Complete Media ([2]; drug in complete media): 0.7901
- Difference [2, 18]: −0.20
